In this assay the target is T1, DC-SIGN (Homo sapiens, UniProt Q9NNX6).
T1 sequence (Q9NNX6 254-404): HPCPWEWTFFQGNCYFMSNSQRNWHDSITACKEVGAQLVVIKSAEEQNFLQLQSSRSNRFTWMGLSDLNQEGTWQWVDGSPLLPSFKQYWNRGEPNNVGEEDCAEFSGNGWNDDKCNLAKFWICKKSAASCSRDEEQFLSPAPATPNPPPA
Briefly: 1H-15N HSQC NMR titration. The assay is classed as binding.

In general, Kd refers to the equilibrium constant for the complex coming apart. Read a high Kd as a looser complex. `C[C@@H]1OC(O)[C@@H](O)[C@H](O)[C@@H]1O` (stereo partly shown) [compound 4, Fuc] yielded a Kd of 4.1 ± 0.7 mM.

These data come from publication PMC6646960 (ACS Chemical Biology, 2019).
